In patent US20030138812A1, “Assessment of ecosystem health by evaluating multiple biomarkers in a nonhuman organism” (priority 2000, published 2003):
Where two headings read alike, the source gives them in different places. Marks after values point to notes of the source that are not given here.

Assays:
[1] = tested on: Palaeomonetes pugio (grass shrimp); test: Atrazine stress: biomarker responses in grass shrimp; type: in vivo; conditions: for B-crystallin / Metallo. (metallothionein) / SOD (Mn SOD) / ubiquitin: 8-hour exposure
Method: (§1) During the seven-day acclimation, grass shrimp were subject to a […] photosynthetic-active-radiation 14 hour photoperiod at 22° C. […] Dissolved oxygen, ammonia content, and temperature were continually monitored throughout the seven-day chamber acclimation.
Atrazine stress—Grass shrimp were exposed to […], or 1 mg/L of an acetone stock of technical grade atrazine (99%).
(§2) Samples were vortexed for 30 seconds and then centrifuged at 10,000× g for 5 minutes. The supernatant was placed in a new tube for LPO and GSH analyses. Protein concentration of samples were assayed by the method of Ghosh et al. (1988), supra.
(§3) Samples were then boiled for 3 minutes, allowed to sit at 25° C. for 5 minutes, and then centrifuged at 10,000× g for 5 minutes. […] The sample was then subjected to another protein concentration assay.
(§4) Samples were analyzed for LPO and total GSH content following the manufacturer's instruction. Samples for each assay were analyzed in triplicate, and sample means provided independent unit of statistical analysis.
(§5) All samples were analyzed in triplicate. ELISPOT technique on nitrocellulose membrane was employed using a dot blot apparatus.

[2] = tested on: Ilyanassa obsoleta (mud snails); test: Atrazine exposure: biomarker responses in mud snails; type: in vivo; conditions: 8-hour exposure
Method: Tanks were aerated with air stones. Snails were fed commercially available algal pellets. […]
(§6) Samples for each assay were analyzed in triplicate.
(§7) Sample was then subjected to another protein concentration assay.
(§8) All samples were analyzed in triplicate.

[3] = tested on: Palaeomonetes pugio (grass shrimp); test: Cadmium stress: biomarker responses in grass shrimp; type: in vivo; conditions: for Cyt. P450 (cytochrome P450 2E1) / SOD (Mn SOD): 8-hour exposure
Method: as §1
Cadmium stress—Grass shrimp were subjected to an 8-hour exposure to 0 M, […], and […] cadmium chloride. The solvent carrier was water.
as §2, §3, §4, §5

[4] = tested on: Ilyanassa obsoleta (mud snails); type: in vivo
Method: Tanks were aerated with air stones. Snails were fed commercially available algal pellets.
The solvent carrier was water.
No evidence of either was found.
as §6, §7, §8

[5] = tested on: Palaeomonetes pugio (grass shrimp); type: in vivo
Text: Purified protein of each cellular parameter was run along side control and treated samples.

[6] = tested on: Ilyanassa obsoleta (mud snails)
Method: To determine that the antibodies bound to their specific targets, preliminary experiments were conducted to ensure the validity of the antibody assays. Snails were exposed either to high temperature, cadmium, ethanol, or acetone, homogenized in an SDS/50 mM dithiothreitol buffered solution, subjected to SDS-PAGE, immunoblotted to PVDF membrane, and assayed with at least 3 different antibodies per cellular parameter. […] Purified protein of each cellular parameter was run beside control and treated samples.

[7] = tested on: Ilyanassa obsoleta (mud snails); test: Endosulfan exposure: biomarker responses in mud snails; conditions: 8-hour exposure
[8] = control to high atrazine treatments, grass shrimp
[9] = high: 50 M cadmium chloride, 8-hour exposure
[10] = low: 5 M cadmium chloride, 8-hour exposure

## CCNc1nc(Cl)nc(NC(C)C)n1 [Atrazine, atrazine]
[1]; [8]
  Levels of LPO decreased: 38%
  levels of Hsp60 increased: nearly five-fold
[1]; high: 1 mg/L atrazine
  B-crystallin: 190 ± 27 ng Hsp or B-crystallin/ g total protein
  Metallo. (metallothionein): 1.7 ± 0.35 ng metallothionein/mg total protein
  SOD (Mn SOD): 7.9 ± 1.86 g SOD/ mg total protein
[1]; low: 1 g/L atrazine
  B-crystallin: 290 ± 27 ng Hsp or B-crystallin/ g total protein
  Metallo. (metallothionein): 1.4 ± 0.17 ng metallothionein/mg total protein
  SOD (Mn SOD): 4.3 ± 0.23 g SOD/ mg total protein
  ubiquitin: 1.44 ± 0.068 nanog ubiquitin/ g total protein
[1]; medium: 500 g/L atrazine
  B-crystallin: 250 ± 45 ng Hsp or B-crystallin/ g total protein
  Metallo. (metallothionein): 1.8 ± 0.45 ng metallothionein/mg total protein
  SOD (Mn SOD): 4.6 ± 1.61 g SOD/ mg total protein
  ubiquitin: 1.38 ± 0.066 nanog ubiquitin/ g total protein
[2]; high: 1 mg/L atrazine
  B-crystallin: 25 ± 2.1 pg Hsp or B-crystallin/ g total protein
  Cyt. P450 (cytochrome P450 2E1 homologue): 17.8 ± 3.07 relative protein concentrations
  GSH: 83 ± 3.1 mM GSH/ g total protein
  Hsp22: 6 ± 1.9 pg Hsp or B-crystallin/ g total protein
  Hsp60: 0.158 ± 0.0086 pg Hsp or B-crystallin/ g total protein
  Hsp70: 121.8 ± 6.08 pg Hsp or B-crystallin/ g total protein
  LPO: 1.32 ± 0.037 mM LPO/mg total protein
  Metallo (metallothionein): 8.6 ± 1.72 ng metallothionein/mg total protein
  Mn SOD: 7.8 ± 1.66 relative protein concentrations
  ubiquitin: 41 ± 3.7 ng ubiquitin/ g total protein
[2]; low: 1 g/L atrazine
  B-crystallin: 29 ± 1.3 pg Hsp or B-crystallin/ g total protein
  Cyt. P450 (cytochrome P450 2E1 homologue): 18.0 ± 2.90 relative protein concentrations
  GSH: 85 ± 3.6 mM GSH/ g total protein
  Hsp22: 6 ± 2.0 pg Hsp or B-crystallin/ g total protein
  Hsp70: 123.4 ± 7.05 pg Hsp or B-crystallin/ g total protein
  LPO: 1.16 ± 0.040 mM LPO/mg total protein
  Metallo (metallothionein): 18.2 ± 2.06 ng metallothionein/mg total protein
  Mn SOD: 9.0 ± 1.76 relative protein concentrations
  ubiquitin: 42 ± 3.9 ng ubiquitin/ g total protein

## [Cl][Cd][Cl] [Cadmium Chloride, cadmium chloride]
[3]; high CdCl2 concentrations, grass shrimp
  Metallothionine increase in mean levels compared to the control: more than a six-fold increase
[3]; high: 50 uM cadmium chloride
  Cyt. P450 (cytochrome P450 2E1): 12.9 ± 1.26 relative protein concentrations
  SOD (Mn SOD): 4.0 ± 0.16 g SOD/ mg total protein
[3]; low: 1 uM cadmium chloride
  Cyt. P450 (cytochrome P450 2E1): 14.5 ± 1.19 relative protein concentrations
  SOD (Mn SOD): 3.3 ± 0.12 g SOD/ mg total protein
[3]; medium: 5 uM cadmium chloride
  Cyt. P450 (cytochrome P450 2E1): 13.4 ± 1.48 relative protein concentrations
  SOD (Mn SOD): 4.3 ± 0.80 g SOD/ mg total protein
[4]; high CdCl2 concentrations, mud snails
  Metallothionine increase in mean levels compared to the control: more than a six-fold increase
[4]; [9]
  Cyt. P450 (cytochrome P450 2E1 homologue): 27.4 ± 3.14 relative protein concentrations
  LPO: 1.16 ± 0.093 mM LPO/mg total protein
[4]; [10]
  Cyt. P450 (cytochrome P450 2E1 homologue): 28.6 ± 3.11 relative protein concentrations
  Hsp60: 0.419^b ± pg Hsp or B-crystallin/ g total protein
  LPO: 1.1 mM LPO/mg total protein
[5]; immunoblot
  induction of protein detected by Mn SOD antibody (about 23 kDa): inducible by both heat stress and cadmium
  induction of proteins detected by Cytochrome P450 2E1 antibody (ca. 53 kDa): did not elicit significant accumulation
  induction of proteins detected by metallothionein antibody (ca. 7 k to 12 kDa): cadmium-inducible
[6]; immunoblot
  induction of protein detected by Cytochrome P450 2E1 antibody (ca. 50 kDa): did not elicit significant accumulation
  induction of protein detected by Mn SOD antibody (about 26 kDa): inducible by both heat stress and cadmium

## O=S1OCC2C(CO1)C1(Cl)C(Cl)=C(Cl)C2(Cl)C1(Cl)Cl (stereo not shown) [Endosulfan, endosulfan]
[7]; high: 1 g/L endosulfan
  B-crystallin: 13 ± 2.7 pg Hsp or B-crystallin/ g total protein
  Hsp26: 23 ± 3.3 pg Hsp or B-crystallin/ g total protein
  Metallo. (metallothionein): 14 ± 3.11 ng metallothionein/mg total protein
[7]; low: 50 ng/L endosulfan
  B-crystallin: 12 ± 3.1 pg Hsp or B-crystallin/ g total protein
  Hsp26: 20 ± 12.673 pg Hsp or B-crystallin/ g total protein
  Metallo. (metallothionein): 19.4 ± 1.99 ng metallothionein/mg total protein
[7]; medium: 500 ng/L endosulfan
  B-crystallin: 11 ± 3.9 pg Hsp or B-crystallin/ g total protein
  Hsp26: 19 ± 5.9 pg Hsp or B-crystallin/ g total protein
  Metallo. (metallothionein): 22.2 ± 3.15 ng metallothionein/mg total protein

## CC(C)=O [acetone]
[5]; immunoblot
  induction of Hsp70 homologues: inducible by all treatments except ethanol and acetone
  induction of protein detected by Mn SOD antibody (about 23 kDa): not by exposure to ethanol or acetone
[5]; in vivo
  induction of proteins detected by Cytochrome P450 2E1 antibody (ca. 53 kDa): ethanol- and acetone-inducible
[6]; immunoblot
  induction of Hsp70 homologues: inducible by all treatments except ethanol and acetone
  induction of protein detected by Mn SOD antibody (about 26 kDa): not by exposure to acetone
[6]; in vivo
  induction of protein detected by Cytochrome P450 2E1 antibody (ca. 50 kDa): ethanol- and acetone-inducible

## CCO [ethanol]
[5]; in vivo
  induction of Hsp70 homologues: inducible by all treatments except ethanol and acetone
  induction of protein detected by Mn SOD antibody (about 23 kDa): not by exposure to ethanol or acetone
  induction of proteins detected by Cytochrome P450 2E1 antibody (ca. 53 kDa): ethanol- and acetone-inducible
[6]; in vivo
  induction of Hsp70 homologues: inducible by all treatments except ethanol and acetone
  induction of protein detected by Cytochrome P450 2E1 antibody (ca. 50 kDa): ethanol- and acetone-inducible
